Key:
SGC-7901 [1] = experiment: Antitumor activity against SGC7901 cell line at 1 umol/L by SRB method; assay type: functional; conditions: Homo sapiens
SGC-7901 [2] = experiment: Antitumor activity against SGC7901 cell line at 0.1 umol/L by SRB method; assay type: functional; conditions: Homo sapiens
SGC-7901 [3] = experiment: Antitumor activity against SGC7901 cell line at 0.01 umol/L by SRB method; assay type: functional; conditions: Homo sapiens
SGC-7901 [4] = experiment: Antitumor activity against SGC7901 cell line at 100 umol/L by SRB method; assay type: functional; conditions: Homo sapiens
SGC-7901 [5] = experiment: Antitumor activity against SGC7901 cell line at 10 umol/L by SRB method; assay type: functional; conditions: Homo sapiens
P388 [6] = experiment: Antitumor activity against P388 cell line at 100 umol/L by MTT method; assay type: functional; conditions: Mus musculus
P388 [7] = experiment: Antitumor activity against P388 cell line at 10 umol/L by MTT method; assay type: functional; conditions: Mus musculus
P388 [8] = experiment: Antitumor activity against P388 cell line at 1 umol/L by MTT method; assay type: functional; conditions: Mus musculus
P388 [9] = experiment: Antitumor activity against P388 cell line at 0.1 umol/L by MTT method; assay type: functional; conditions: Mus musculus
P388 [10] = experiment: Antitumor activity against P388 cell line at 0.01 umol/L by MTT method; assay type: functional; conditions: Mus musculus
A549 [11] = experiment: Antitumor activity against A549 cell line at 0.1 umol/L by SRB method; assay type: functional; conditions: Homo sapiens
A549 [12] = experiment: Antitumor activity against A549 cell line at 10 umol/L by SRB method; assay type: functional; conditions: Homo sapiens
A549 [13] = experiment: Antitumor activity against A549 cell line at 1 umol/L by SRB method; assay type: functional; conditions: Homo sapiens
SGC-7901 [14] = experiment: Antitumor activity against SGC7901 cell line at 50 nmol/L by SRB method; assay type: functional; conditions: Homo sapiens
SGC-7901 [15] = experiment: Antitumor activity against SGC7901 cell line at 25 nmol/L by SRB method; assay type: functional; conditions: Homo sapiens
SGC-7901 [16] = experiment: Antitumor activity against SGC7901 cell line at 12.5 nmol/L by SRB method; assay type: functional; conditions: Homo sapiens
SGC-7901 [17] = experiment: Antitumor activity against SGC7901 cell line at 6.25 nmol/L by SRB method; assay type: functional; conditions: Homo sapiens
SGC-7901 [18] = experiment: Antitumor activity against SGC7901 cell line by SRB method; assay type: functional, cell-based; conditions: Homo sapiens

C/C(=N/N=C(\S)Nc1ccc(Cl)cc1)c1cccs1
inhibition at 1 µM (SGC-7901 [1]): 0% | inhibition at 0.1 µM (SGC-7901 [2]): 0% | inhibition at 0.01 µM (SGC-7901 [3]): 0% | inhibition at 100 µM (SGC-7901 [4]): 56.7% | inhibition at 10 µM (SGC-7901 [5]): 12.7% | inhibition at 100 µM (P388 [6]): 21.6% | inhibition at 10 µM (P388 [7]): 9.9% | inhibition at 1 µM (P388 [8]): 0% | inhibition at 0.1 µM (P388 [9]): 0% | inhibition at 0.01 µM (P388 [10]): 0%

COc1ccc(N/C(S)=N/N=C(/C)c2cccs2)cc1
inhibition at 1 µM (SGC-7901 [1]): 0% | inhibition at 0.1 µM (SGC-7901 [2]): 0% | inhibition at 0.01 µM (SGC-7901 [3]): 0% | inhibition at 100 µM (SGC-7901 [4]): 65.1% | inhibition at 10 µM (SGC-7901 [5]): 29.2% | inhibition at 100 µM (P388 [6]): 25.9% | inhibition at 10 µM (P388 [7]): 5.2% | inhibition at 1 µM (P388 [8]): 6.9% | inhibition at 0.1 µM (P388 [9]): 3.6% | inhibition at 0.01 µM (P388 [10]): 0%

C/C(=N/N=C(\S)Nc1ccccc1)c1cccs1
inhibition at 1 µM (SGC-7901 [1]): 0% | inhibition at 0.1 µM (SGC-7901 [2]): 0% | inhibition at 0.01 µM (SGC-7901 [3]): 0% | inhibition at 100 µM (SGC-7901 [4]): 39.2% | inhibition at 10 µM (SGC-7901 [5]): 0% | inhibition at 100 µM (P388 [6]): 48% | inhibition at 10 µM (P388 [7]): 1.2% | inhibition at 1 µM (P388 [8]): 1.6% | inhibition at 0.1 µM (P388 [9]): 6.2% | inhibition at 0.01 µM (P388 [10]): 8.5%

C/C(=N/N=C(\S)Nc1ccc([N+](=O)[O-])cc1)c1cccs1
inhibition at 1 µM (SGC-7901 [1]): 8.3% | inhibition at 0.1 µM (SGC-7901 [2]): 14.5% | inhibition at 0.01 µM (SGC-7901 [3]): 9.1% | inhibition at 100 µM (SGC-7901 [4]): 51.7% | inhibition at 10 µM (SGC-7901 [5]): 35.7% | inhibition at 100 µM (P388 [6]): 8.6% | inhibition at 10 µM (P388 [7]): 0% | inhibition at 1 µM (P388 [8]): 2.1% | inhibition at 0.1 µM (P388 [9]): 3.6% | inhibition at 0.01 µM (P388 [10]): 10.3%

C/C(=N/N=C(\S)Nc1cccc2ccccc12)c1cccs1
inhibition at 1 µM (SGC-7901 [1]): 13.5% | inhibition at 0.1 µM (SGC-7901 [2]): 16.5% | inhibition at 0.01 µM (SGC-7901 [3]): 20% | inhibition at 100 µM (SGC-7901 [4]): 55.9% | inhibition at 10 µM (SGC-7901 [5]): 24.3% | inhibition at 100 µM (P388 [6]): 30.3% | inhibition at 10 µM (P388 [7]): 4.3% | inhibition at 1 µM (P388 [8]): 7.2% | inhibition at 0.1 µM (P388 [9]): 0.9% | inhibition at 0.01 µM (P388 [10]): 0%

C/C(=N/N=C(\S)Nc1cccc(Cl)c1)c1cccs1
inhibition at 1 µM (SGC-7901 [1]): 0% | inhibition at 0.1 µM (SGC-7901 [2]): 0% | inhibition at 0.01 µM (SGC-7901 [3]): 0% | inhibition at 100 µM (SGC-7901 [4]): 86.8% | inhibition at 10 µM (SGC-7901 [5]): 39.7% | inhibition at 100 µM (P388 [6]): 51% | inhibition at 10 µM (P388 [7]): 6.5% | inhibition at 1 µM (P388 [8]): 3.7% | inhibition at 0.1 µM (P388 [9]): 8.3% | inhibition at 0.01 µM (P388 [10]): 0%

C/C(=N/N=C(\S)Nc1cc(Cl)cc(Cl)c1)c1cccs1
inhibition at 1 µM (SGC-7901 [1]): 0% | inhibition at 0.1 µM (SGC-7901 [2]): 0% | inhibition at 0.01 µM (SGC-7901 [3]): 0% | inhibition at 100 µM (SGC-7901 [4]): 72.9% | inhibition at 10 µM (SGC-7901 [5]): 27.9% | inhibition at 100 µM (P388 [6]): 90.1% | inhibition at 10 µM (P388 [7]): 20.9% | inhibition at 1 µM (P388 [8]): 7% | inhibition at 0.1 µM (P388 [9]): 17.6% | inhibition at 0.01 µM (P388 [10]): 0%

C/C(=N/N=C(\S)N1CCN(c2ccccn2)CC1)c1nccs1
inhibition at 1 µM (SGC-7901 [1]): 60.8% | inhibition at 0.1 µM (SGC-7901 [2]): 14.3% | inhibition at 0.1 µM (A549 [11]): 15.6% | inhibition at 10 µM (SGC-7901 [5]): 92.5% | inhibition at 10 µM (P388 [7]): 94.5% | inhibition at 1 µM (P388 [8]): 74.3% | inhibition at 0.1 µM (P388 [9]): 73.5% | inhibition at 10 µM (A549 [12]): 13.6% | inhibition at 1 µM (A549 [13]): 21.5%

C/C(=N/N=C(\S)N1CCN(c2ccccn2)CC1)c1ncccn1
inhibition at 1 µM (SGC-7901 [1]): 90% | inhibition at 0.1 µM (SGC-7901 [2]): 81.7% | inhibition at 0.05 µM (SGC-7901 [14]): 60.1% | inhibition at 0.1 µM (A549 [11]): 12.6% | inhibition at 10 µM (SGC-7901 [5]): 90% | inhibition at 10 µM (P388 [7]): 96.5% | inhibition at 1 µM (P388 [8]): 89.4% | inhibition at 0.1 µM (P388 [9]): 28.3% | inhibition at 10 µM (A549 [12]): 79.3% | inhibition at 1 µM (A549 [13]): 18.5% | inhibition at 0.025 µM (SGC-7901 [15]): 48.4% | inhibition at 0.0125 µM (SGC-7901 [16]): 31.7% | inhibition at 0.00625 µM (SGC-7901 [17]): 18.4% | IC50 (SGC-7901 [18]): 32 nM

C/C(=N/N=C(\S)N1CCN(c2ccccn2)CC1)c1ccc([N+](=O)[O-])cc1
inhibition at 0.1 µM (A549 [11]): 0% | inhibition at 10 µM (P388 [7]): 6.4% | inhibition at 1 µM (P388 [8]): 4.6% | inhibition at 0.1 µM (P388 [9]): 4.6% | inhibition at 10 µM (A549 [12]): 16.4% | inhibition at 1 µM (A549 [13]): 0%

C/C(=N/N=C(\S)Nc1ccc(C)cc1)c1cccs1
inhibition at 1 µM (SGC-7901 [1]): 15% | inhibition at 0.1 µM (SGC-7901 [2]): 9.6% | inhibition at 0.01 µM (SGC-7901 [3]): 8.8% | inhibition at 100 µM (SGC-7901 [4]): 67.8% | inhibition at 10 µM (SGC-7901 [5]): 33.9% | inhibition at 100 µM (P388 [6]): 8.4% | inhibition at 10 µM (P388 [7]): 9.2% | inhibition at 1 µM (P388 [8]): 5.7% | inhibition at 0.1 µM (P388 [9]): 10.8% | inhibition at 0.01 µM (P388 [10]): 0%

C/C(=N/N=C(\S)N1CCN(c2ccccn2)CC1)c1cccs1
inhibition at 1 µM (SGC-7901 [1]): 7.2% | inhibition at 0.1 µM (SGC-7901 [2]): 1.6% | inhibition at 0.01 µM (SGC-7901 [3]): 12.8% | inhibition at 100 µM (SGC-7901 [4]): 96.4% | inhibition at 10 µM (SGC-7901 [5]): 94.9% | inhibition at 100 µM (P388 [6]): 100% | inhibition at 10 µM (P388 [7]): 0% | inhibition at 1 µM (P388 [8]): 15% | inhibition at 0.1 µM (P388 [9]): 0% | inhibition at 0.01 µM (P388 [10]): 0%

C/C(=N/N=C(\S)Nc1ccccc1C)c1cccs1
inhibition at 1 µM (SGC-7901 [1]): 5.5% | inhibition at 0.1 µM (SGC-7901 [2]): 0% | inhibition at 0.01 µM (SGC-7901 [3]): 7.1% | inhibition at 100 µM (SGC-7901 [4]): 73.5% | inhibition at 10 µM (SGC-7901 [5]): 41.6% | inhibition at 100 µM (P388 [6]): 91.9% | inhibition at 10 µM (P388 [7]): 1.3% | inhibition at 1 µM (P388 [8]): 0% | inhibition at 0.1 µM (P388 [9]): 5.9% | inhibition at 0.01 µM (P388 [10]): 0%

C/C(=N/N=C(\S)N1CCN(c2ccccn2)CC1)c1ccccc1
inhibition at 0.1 µM (A549 [11]): 0% | inhibition at 10 µM (P388 [7]): 4.6% | inhibition at 1 µM (P388 [8]): 0% | inhibition at 0.1 µM (P388 [9]): 0% | inhibition at 10 µM (A549 [12]): 0.8% | inhibition at 1 µM (A549 [13]): 0%

Reference: ChEMBL document CHEMBL1146960, “Synthesis and anticancer activity of thiosemicarbazones” (Bioorg Med Chem Lett, 2006)
